Measured values: the NIST ThermoML archive (doi:10.1016/j.jct.2011.02.008)

Test: xn = mol fraction of the nth substance listed
Details: Liquid, Vibrating tube method

COC(=O)c1ccccc1 [methyl benzoate] + CCCCCCO
mass density [kg/m3]
Details | x1 = 0.1004 | x1 = 0.2007 | x1 = 0.3007 | x1 = 0.4013 | x1 = 0.5005 | x1 = 0.6009 | x1 = 0.7 | x1 = 0.8008 | x1 = 0.9009
318.15 K, 30000 kPa | 846.9 | 872.9 | 899.1 | 925.4 | 951.5 | 977.9 | 1003.9 | 1030.5 | 1056.8
318.15 K, 35000 kPa | 849.9 | 875.9 | 902.1 | 928.4 | 954.5 | 980.9 | 1006.9 | 1033.5 | 1059.8
318.15 K, 40000 kPa | 852.8 | 878.8 | 905.1 | 931.4 | 957.4 | 983.8 | 1009.8 | 1036.4 | 1062.7
318.15 K, 45000 kPa | 855.7 | 881.7 | 907.9 | 934.3 | 960.3 | 986.7 | 1012.7 | 1039.3 | 1065.6
318.15 K, 50000 kPa | 858.4 | 884.5 | 910.7 | 937.1 | 963.1 | 989.5 | 1015.5 | 1042.1 | 1068.4
318.15 K, 55000 kPa | 861.1 | 887.2 | 913.4 | 939.8 | 965.8 | 992.2 | 1018.2 | 1044.6 | 1071.1
318.15 K, 60000 kPa | 863.6 | 889.6 | 915.9 | 942.3 | 968.3 | 994.9 | 1020.7 | 1047.2 | 1073.6
328.15 K, 100 kPa | 818.7 | 844.4 | 870.4 | 896.7 | 922.5 | 948.8 | 974.9 | 1001.4 | 1027.8
328.15 K, 1000 kPa | 819.4 | 845.1 | 871.1 | 897.4 | 923.2 | 949.5 | 975.6 | 1002.1 | 1028.5
328.15 K, 5000 kPa | 822.6 | 848.3 | 874.3 | 900.5 | 926 | 952.6 | 978.6 | 1005.1 | 1031.5
328.15 K, 10000 kPa | 826.4 | 852.1 | 878.1 | 904.3 | 930.1 | 956.3 | 982.2 | 1008.7 | 1035.1
328.15 K, 15000 kPa | 830 | 855.7 | 881.7 | 907.8 | 933.7 | 959.9 | 985.8 | 1012.3 | 1038.6
328.15 K, 20000 kPa | 833.5 | 859.2 | 885.2 | 911.3 | 937.2 | 963.3 | 989.2 | 1015.7 | 1042
328.15 K, 25000 kPa | 836.9 | 862.6 | 888.6 | 914.6 | 940.5 | 966.6 | 992.5 | 1019 | 1045.3
328.15 K, 30000 kPa | 840.1 | 865.8 | 891.8 | 917.9 | 943.7 | 969.9 | 995.7 | 1022.2 | 1048.5
328.15 K, 35000 kPa | 843.3 | 869 | 895 | 921.1 | 946.9 | 973 | 998.9 | 1025.3 | 1051.6
328.15 K, 40000 kPa | 846.3 | 872 | 898 | 924.1 | 950 | 976 | 1001.9 | 1028.3 | 1054.6
328.15 K, 45000 kPa | 849.2 | 874.9 | 901 | 927.1 | 952.9 | 979 | 1004.9 | 1031.3 | 1057.6
328.15 K, 50000 kPa | 852.1 | 877.8 | 903.9 | 930 | 955.8 | 981.9 | 1007.8 | 1034.2 | 1060.5
328.15 K, 55000 kPa | 854.9 | 880.6 | 906.7 | 932.8 | 958.7 | 984.8 | 1010.7 | 1037.1 | 1063.3
328.15 K, 60000 kPa | 857.4 | 883.2 | 908.8 | 935.6 | 960.6 | 987.4 | 1013.3 | 1039.6 | 1066.1
338.15 K, 100 kPa | 810.7 | 836.2 | 862 | 888 | 913.7 | 939.7 | 965.6 | 992 | 1018.4
338.15 K, 1000 kPa | 811.4 | 837 | 862.7 | 888.7 | 914.4 | 940.4 | 966.3 | 992.7 | 1019.1
338.15 K, 5000 kPa | 814.9 | 840.4 | 866.1 | 892 | 917.7 | 943.7 | 969.5 | 996 | 1022.3
338.15 K, 10000 kPa | 818.9 | 844.3 | 870.1 | 896 | 921.6 | 947.6 | 973.4 | 999.7 | 1026
338.15 K, 15000 kPa | 822.7 | 848.2 | 873.8 | 899.7 | 925.4 | 951.4 | 977.2 | 1003.4 | 1029.7
338.15 K, 20000 kPa | 826.4 | 851.8 | 877.5 | 903.4 | 929.1 | 955 | 980.7 | 1007 | 1033.3
338.15 K, 25000 kPa | 829.9 | 855.3 | 881 | 906.9 | 932.5 | 958.5 | 984.2 | 1010.5 | 1036.7
338.15 K, 30000 kPa | 833.3 | 858.7 | 884.4 | 910.3 | 935.9 | 961.8 | 987.5 | 1013.8 | 1040
338.15 K, 35000 kPa | 836.5 | 862 | 887.7 | 913.6 | 939.2 | 965.1 | 990.8 | 1017.1 | 1043.3
338.15 K, 40000 kPa | 839.7 | 865.1 | 890.9 | 916.8 | 942.4 | 968.3 | 994 | 1020.2 | 1046.4
338.15 K, 45000 kPa | 842.7 | 868.2 | 894 | 919.9 | 945.5 | 971.4 | 997.1 | 1023.3 | 1049.5
338.15 K, 50000 kPa | 845.7 | 871.2 | 897 | 922.9 | 948.5 | 974.4 | 1000.1 | 1026.4 | 1052.5
338.15 K, 55000 kPa | 848.6 | 874.1 | 899.9 | 925.8 | 951.4 | 977.4 | 1003.1 | 1029.3 | 1055.5
338.15 K, 60000 kPa | 851.4 | 876.8 | 902.8 | 928.7 | 954.3 | 980.1 | 1005.8 | 1032 | 1058.2
348.15 K, 100 kPa | 802.6 | 827.8 | 853.4 | 879.1 | 904.6 | 930.4 | 956.1 | 982.5 | 1008.8
348.15 K, 1000 kPa | 803.3 | 828.6 | 854.2 | 879.9 | 905.4 | 931.3 | 956.9 | 983.2 | 1009.5
348.15 K, 5000 kPa | 807 | 832.2 | 857.7 | 883.4 | 908.8 | 934.7 | 960.3 | 986.6 | 1012.9
348.15 K, 10000 kPa | 811.2 | 836.4 | 861.9 | 887.6 | 913 | 938.8 | 964.4 | 990.7 | 1016.9
348.15 K, 15000 kPa | 815.2 | 840.4 | 865.9 | 891.4 | 917 | 942.8 | 968.4 | 994.6 | 1020.7
348.15 K, 20000 kPa | 819 | 844.2 | 869.7 | 895.4 | 920.8 | 946.6 | 972.1 | 998.3 | 1024.4
348.15 K, 25000 kPa | 822.7 | 847.9 | 873.4 | 899.1 | 924.5 | 950.2 | 975.8 | 1001.9 | 1028
348.15 K, 30000 kPa | 826.2 | 851.4 | 877 | 902.6 | 928 | 953.8 | 979.3 | 1005.4 | 1031.5
348.15 K, 35000 kPa | 829.6 | 854.8 | 880.4 | 906 | 931.4 | 957.2 | 982.7 | 1008.9 | 1034.9
348.15 K, 40000 kPa | 832.9 | 858.1 | 883.7 | 909.3 | 934.7 | 960.5 | 986 | 1012.2 | 1038.2
348.15 K, 45000 kPa | 836.1 | 861.3 | 886.9 | 912.5 | 938 | 963.7 | 989.3 | 1015.4 | 1041.4
348.15 K, 50000 kPa | 839.1 | 864.4 | 890 | 915.7 | 941.1 | 966.9 | 992.4 | 1018.5 | 1044.5
348.15 K, 55000 kPa | 842.1 | 867.4 | 893 | 918.7 | 944.2 | 969.9 | 995.5 | 1021.6 | 1047.6
348.15 K, 60000 kPa | 844.9 | 870.2 | 895.8 | 921.5 | 947 | 972.8 | 998.2 | 1024.6 | 1050.4
358.15 K, 100 kPa | 794.1 | 819.1 | 844.4 | 869.9 | 895.3 | 921 | 946.6 | 972.8 | 999
358.15 K, 1000 kPa | 795 | 820 | 845.3 | 870.8 | 896.1 | 921.7 | 947.4 | 973.6 | 999.8
358.15 K, 5000 kPa | 798.7 | 823.7 | 849 | 874.5 | 899.8 | 925.5 | 951 | 977.2 | 1003.3
358.15 K, 10000 kPa | 803.1 | 828.2 | 853.5 | 878.9 | 904.2 | 929.9 | 955.3 | 981.4 | 1007.5
358.15 K, 15000 kPa | 807.4 | 832.4 | 857.7 | 883.1 | 908.4 | 934 | 959.5 | 985.5 | 1011.6
358.15 K, 20000 kPa | 811.4 | 836.4 | 861.7 | 887.1 | 912.3 | 938 | 963.4 | 989.5 | 1015.5
358.15 K, 25000 kPa | 815.3 | 840.3 | 865.6 | 891 | 916.2 | 941.8 | 967.3 | 993.3 | 1019.3
358.15 K, 30000 kPa | 818.9 | 844 | 869.3 | 894.7 | 919.9 | 945.5 | 970.9 | 996.9 | 1022.9
358.15 K, 35000 kPa | 822.4 | 847.6 | 872.8 | 898.3 | 923.5 | 949.1 | 974.5 | 1000.5 | 1026.5
358.15 K, 40000 kPa | 825.9 | 851 | 876.3 | 901.7 | 926.9 | 952.6 | 978 | 1003.9 | 1029.9
358.15 K, 45000 kPa | 829.2 | 854.3 | 879.6 | 905.1 | 930.3 | 956 | 981.3 | 1007.3 | 1033.2
358.15 K, 50000 kPa | 832.4 | 857.5 | 882.9 | 908.3 | 933.6 | 959.3 | 984.6 | 1010.6 | 1036.5
358.15 K, 55000 kPa | 835.5 | 860.7 | 886 | 911.5 | 936.7 | 962.4 | 987.8 | 1013.7 | 1039.7
358.15 K, 60000 kPa | 838.5 | 863.5 | 889.1 | 914.4 | 939.8 | 965.3 | 990.7 | 1016.9 | 1042.6
